Assay results as given in patent publication US10077290B2, “Stabilized antiviral fusion helices” (priority 2011, dated 2018).
“Also recorded” adds a separate entry of the source. Like-named read-outs stand apart in the source and are kept apart here. Bridges are numbered along the chain shown (N, C = ends). Where no end group is shown, it is not given here. [ ]: non-standard residue; d: D form. R8 = C=CCCCCCC[C@@](C)(N)C(=O)O; S5 = C=CCCC[C@](C)(N)C(=O)O

Key:
[1] = Circular dichroism (CD) alpha-helicity; format: physicochemical; settings: aqueous solution (pH 7, 35° C.)
Protocol: Compounds are dissolved in an aqueous solution (e.g. 5 mM potassium phosphate solution at pH 7, or distilled H2O, to concentrations of 25-50 μM). Circular dichroism (CD) spectra are obtained on a spectropolarimeter (e.g., Jasco J-710, Aviv) using standard measurement parameters (e.g. temperature, 20° C.; wavelength, 190-260 nm; step resolution, 0.5 nm; speed, 20 nm/sec; accumulations, 10; response, 1 sec; bandwidth, 1 nm; path length, 0.1 cm). The α-helical content of each peptide is calculated by dividing the mean residue ellipticity by the reported value for a model helical decapeptide (Yang et al., Methods Enzymol. 130:208 (1986)).
To document secondary structure improvements of hydrocarbon-stapled peptides, circular dichroism (CD) spectra was recorded and analyzed on a Model 410 Aviv Biomedical spectrometer (Walensky, supra; Bird, supra). […] The target peptide concentration for CD studies is 25-50 μM in 50 mM potassium phosphate (pH 7.5) or Milli-Q deionized water, and exact concentrations are confirmed by quantitative AAA of two CD sample dilutions. […] After conversion to mean residue ellipticity, percent α-helicity can be calculated using the equation, % helicity=100×[θ]222/max[θ]222, where max[θ]222=−40,000×[1−(2.5/number of amino acid residues)]. […]

RSV-A2 [2] = experiment: RSV-A2 lung infection of BALB/c mice after prophylactic intranasal peptide; format: in vivo
Protocol: One hour post treatment, three groups of mice were inoculated with a single dose of RSV-A2 at 1×10^6 pfu/mouse. Peptide dosing and viral inoculation was repeated 16 hours post-infection. The fourth group was treated with volume-equivalent vehicle and mock-infected. Two mice from each group were sacrificed 4 days after the second infection and left lung lobes harvested after 1% paraformaldehyde perfusion, followed by cryopreservation in OCT. Sections (5 μm) were treated with 1:1000 dilution of rabbit anti-RSV polyclonal antibody (Millipore) overnight followed by anti-rabbit antibody conjugated to Alexa Fluor 555 (1:400) (red) (Molecular Probes) for 1 h. Sections were washed and mounted with medium containing DAPI (blue) and viewed with an Olympus fluorescent microscope (FIG. 17A; original magnification 20×). Image J analysis was performed on the acquired images and the percentage RSV-positive cells (red) of total DAPI-positive cells (blue) determined from 8 images (4 sections) per mice (FIG. 17B; .error bars represent mean+/−SEM; *, p<0.0001). Four days after the second infection, bronchoalveolar lavage (BAL) was performed on one mouse from each group and BAL supernatant used to determine the viral titers by plaque assay on Hep-2 cells (FIG. 17C; error bars represent mean+/−SEM of plaques counted per in vivo specimen; *, p<0.05). Also at four days after the second infection, cranial and caudal lobes of the right lung from two mice per group were snap frozen on dry ice. A lung homogenate was generated from the cranial lobe and supernatant subjected to viral titer determination (log 10 pfu/ml) (FIG. 17D; error bars represent mean+/−SEM; *, p<0.05). Total RNA was isolated from the caudal lobe of the right lung and quatitative RT-PCR was performed for the RSV-N gene. The results of this analysis are presented in FIG. 17E in which the bar graphs represent the RSV-N gene expression normalized to the mock-infected tissue.

RSV 5-helix bundle = experiment: Competition fluorescence polarization assay (FPA) against FITC-RSV HR2 (488-522); format: binding, Respiratory Syncytial Virus (RSV)
Protocol: To assess binding activity toward the RSV fusogenic bundle, competition FPA was performed using recombinant five-helix bundle protein, fluorescent HR2 peptide (488-522), and serial dilutions of SAHF peptides shown in Table 2. More specifically, a 5-helix bundle protein was designed containing five of the six helices that comprise the core of the RSV-F trimer of hairpins, connected by short peptide linkers in accordance with the design of the gp41 5-helix bundle (Root et al., Science, 291:884-888, 2001). Because the 5-helix bundle lacks the third HR2 helix but is otherwise soluble, stable, and helical, incorporation of the sixth HR2 peptide in the form of FITC-RSV (488-522) yielded a stable complex, which can be competed with acetylated SAH-RSV peptides to gauge relative binding affinity.
FPA assays were used to measure and compare the relative binding activities of distinct SAHF constructs for the RSV fusion bundle. First, FITC-RSV HR2 peptide (488-522) is mixed with a serial dilution of recombinant 5-helix bundle protein to generate a binding isotherm. A fixed concentration of FITC-peptide and protein at ˜EC75 was then incubated with a serial dilution of acetylated SAHF peptide to generate competition curves for comparative analysis. Fluorescence polarization (mP units) was measured on a SpectraMax fluorimeter and IC50 values calculated by nonlinear regression analysis of competition curves using Prism software (Graphpad).

rgRSV [3] = experiment: rgRSV in vitro infectivity assay in Vero cells; format: cell-based, Respiratory Syncytial Virus (RSV); settings: for inhibition of RSV infection (anti-RSV activity): rgRSV 0.1 MOI, 24 hour post-infection; for RSV infection, peptide administered before viral exposure (prophylactically): SAHF for 1 hour followed by rgRSV 0.1 MOI; for RSV infection, peptide administered after viral exposure: rgRSV 0.1 MOI for 1 hour followed by SAHF
Protocol: To test the capacity of SAHF peptides to block RSV infection of culture cells, an in vitro infectivity assay was performed in the presence and absence of SAHF peptides. Briefly, Vero cells plated in 48-well format (60,000 cells/well) were exposed to rgRSV only (0.1 MOI) and SAHF peptides, followed by imaging 24 hour post-infection to quantitate infectivity by confocal microscopy and FACS analysis Annexin V staining was also performed on harvested Vero cells to distinguish live from dead cells when calculating percent GFP positive cells.
(§1) Vero cells plated in 48-well format (60,000 cells/well) were exposed to (a) rgRSV only (0.1 MOI); (b) rgRSV for 1 hour followed by treatment with SAHF; and (c) SAHF for 1 hour followed by rgRSV infection, and then imaged 24 hour post-infection to quantitate infectivity by confocal microscopy and FACS analysis.

rgRSV [4] = experiment: Intranasal peptide followed by transnasal rgRSV infection in mice; format: in vivo; settings: 250 μM, 25 μL intranasally four hours before rgRSV, 20 hours post-infection
Protocol: To examine the capacity of SAH-RSV peptides to inhibit RSV infection in vivo, vehicle or SAH-RSV peptide (250 μM, 25 μL) was administered to anesthetized mice intranasally followed by transnasal infection with rgRSV (5×10^5 PFU, 36 μL) four hours later. Mice were sacrificed 20 hours post-infection, and the nasal epithelium cryosectioned, stained with DAPI, and imaged using a fluorescent microscope.

rgRSV [5] = experiment: Virus-induced syncytia formation in Vero cells; format: cell-based, Respiratory Syncytial Virus (RSV); settings: administered before or after viral exposure
Protocol: as §1

RgRSV [6] = experiment: Intranasal RgRSV infection of BALB/c mice after intranasal peptide; format: in vivo; settings: RgRSV-infected, 125 μM intranasally
Protocol: One hour post treatment, three groups of mice were inoculated with a single dose of RgRSV at 1×10^6 pfu/mouse, with the fourth group receiving a mock inoculation. Mice were sacrificed at 24 hours post infection and the noses harvested, sectioned, stained with DAPI and imaged with an Olympus fluorescent microscope (FIG. 16A; original magnification 20×). Image J analysis was performed on the acquired images (FIG. 16B) and average GFP positive (green) and DAPI positive (blue) cells were calculated from eight images (4 sections) per mouse (bars represent percent GFP positive of total DAPI-positive cells present in the images and error bars represent mean+/−SEM. *, p<0.001). FIG. 16C depicts the results of hematoxylin and eosin staining of the nose sections (original magnification 20×, insets 100×) In FIG. 16C black arrows highlight thickened mucosa.

RSV-A2 [7] = experiment: RSV-A2 infection of A549 cells at 1 MOI, Hep-2 plaque assay titers; format: cell-based, Respiratory Syncytial Virus (RSV); settings: 5 μM peptide
Protocol: In this study A549 cells were plated in a 24 well plate at 30,000 cells/well. The following day, the cells were treated with 5 μM of the indicated stapled SAHF peptide or volume-equivalent DMSO vehicle, followed by RSV-A2 infection at 1 MOI. The cells were infected for 2 h, and the infection medium replaced with 400 μl of DMEM containing 5% FBS and 5 μM of the indicated stapled SAHF peptide. Cells were harvested along with the supernantant 24 h post infection, vortexed for 10 sec, and the supernatant collected, leaving the cell pellet behind. Hep-2 cells were plated on a 24 well plate at 60,000 cells/well the day before use. Plaque assay was performed on Hep-2 cells using the collected supernatant and titers determined at 5 days post infection of Hep-2 cells. The results of this analysis are shown in FIG. 14 in which titers are shown as log 10 pfu/ml and the values represent the mean+/−SEM for two independent experiments (***p<0.001; ****p<0.0001).

With “FDASISQVNEKINQSLAFIRKSDELLHNVNAGKST [RSV HR2 (488-522)WT, reference compound]” the “percent α-helicity” value [1] was roughly 23% and the “RSV-N gene expression in lung (quantitative RT-PCR)” value (RSV-A2 [2]; caudal lobe of right lung) was “no observed effect”.

With “FDASISQVNEKINQSLAFI8KSDELLXNVNAGKST (Ac-FDASISQVNEKINQSLAFI[R8]KSDELL[S5]NVNAGKST; staple 20-27) [SAHF-J]” the “5-helix bundle binding activity” value (RSV 5-helix bundle) was “superior 5-helix bundle binding” and the “inhibition of RSV infection (anti-RSV activity)” value (shortened to “inhibition of RSV infection”) (rgRSV [3]) was “superior”.

In the case of “FDAXISQXNEKINQSLAFIRKSDELLHNVNAGKST (Ac-FDA[S5]ISQ[S5]NEKINQSLAFIRKSDELLHNVNAGKST; staple 4-8) [SAHF-C]”, the “RSV infection of nasal mucosa (GFP-positive cells)” value (rgRSV [4]) is reported as “markedly suppressed RSV infection; also recorded: blocks trans-nasal RSV infection in mice”, the “5-helix bundle binding activity” value (RSV 5-helix bundle) is reported as “bound the 5-helix bundle” and the “inhibition of RSV infection” value (rgRSV [3]) is reported as “suppressed RSV infection in vitro”.

For “FDASISQVNEKINQSLAFIRK8DELLHNXNAGKST [SAHF-L, negative control]”, the virus-induced syncytia formation (rgRSV [5]) was “little to no effect”, the “RSV infection of nasal mucosa (GFP-positive cells)” value (rgRSV [4]) was “no in vivo activity” and the “5-helix bundle binding activity” value (RSV 5-helix bundle) was “no binding activity; also recorded: did not bind”. The “5-helix bundle binding activity” value (RSV 5-helix bundle; listed as SAH-RSV(L)) was “poor binding activity; also recorded: incapable of binding the 5-helix bundle”, the “RSV infection, peptide administered before viral exposure (prophylactically)” value (rgRSV [3]) was “little to no effect” and the “RSV infection, peptide administered after viral exposure” value (rgRSV [3]) was “little to no effect”. For the same substance, the “inhibition of RSV infection” value (rgRSV [3]) was “nor suppressed RSV infection in vitro” and the “inhibition of RSV infection” value (rgRSV [3]; listed as SAH-RSV(L)) was “no activity”.

In the case of “FD8SISQVNXKINQSLAFIRK8DELLHNXNAGKST (FDXSISQVNXKINQSLAFIRKXDELLHNXNAGKST; two hydrocarbon staples; MOD_RES (3)..(3) Any amino acid; (3)..(10) Crosslink between residues; MOD_RES (10)..(10) Any amino acid; MOD_RES (22)..(22) Any amino acid; (22)..(29) Crosslink between residues; MOD_RES (29)..(29) Any amino acid) [SAHF-H, L, control]”, the “inflammation in nose sections (hematoxylin and eosin staining)” value (RgRSV [6]) is reported as “Inflammation is noted” and the “RSV-A2 lung infection, by each measure (RSV-positive cells, BAL and lung homogenate titers, RSV-N gene)” value (RSV-A2 [2]; 125 μM intranasally, dosing and inoculation repeated at 16 hours, 4 days after second infection) is reported as “no effect”.

For “FD8SISQVNXKINQSLAFIRKSDELLHNVNAGKST (FDXSISQVNXKINQSLAFIRKSDELLHNVNAGKST; hydrocarbon staple; MOD_RES (3)..(3) Any amino acid; (3)..(10) Crosslink between residues; MOD_RES (10)..(10) Any amino acid) [SAHF-H]”, the virus-induced syncytia formation (rgRSV [5]) was “blocked syncytial formation; also recorded: inhibits virus-induced syncytia formation”, the “5-helix bundle binding activity” value (RSV 5-helix bundle) was “superior 5-helix bundle binding” and the “RSV infection, peptide administered before viral exposure (prophylactically)” value (rgRSV [3]) was “inhibited RSV infection; also recorded: blocks RSV infection of Vero cells”. The “RSV infection, peptide administered after viral exposure” value (rgRSV [3]) was “inhibited RSV infection; also recorded: blocks RSV infection of Vero cells” and the “inhibition of RSV infection” value (rgRSV [3]) was “superior”.

For “FDA8ISQVNEXINQSLAFI8KSDELLXNVNAGKST (Ac-FDA[R8]ISQVNE[S5]INQSLAFI[R8]KSDELL[S5]NVNAGKST; staple 4-11, 20-27) [SAHF-I, J]”, the “RSV-A2 infection (viral titers)” value (RSV-A2 [7]) was “inhibit RSV-A2 infection of A549 cells”.

In the case of “FDA8SQVVNEXINQSLAFIRKSDELLHNVNAGKST [SAHF-I]”, the “5-helix bundle binding activity” value (RSV 5-helix bundle) is reported as “superior 5-helix bundle binding” and the “inhibition of RSV infection” value (rgRSV [3]) is reported as “superior”.

With “FDASISQVNEKINQSLAFIR8SDELLHXVNAGKST (Ac-FDASISQVNEKINQSLAFIR[R8]SDELLH[S5]VNAGKST; staple 21-28) [SAHF-K]” the “5-helix bundle binding activity” value (RSV 5-helix bundle) was “superior 5-helix bundle binding” and the “inhibition of RSV infection” value (rgRSV [3]) was “superior”.

With “F8ASISQVXEKINQSLAFIRKSDELLHNVNAGKST (Ac-F[R8]ASISQV[S5]EKINQSLAFIRKSDELLHNVNAGKST; staple 2-9) [SAHF-G]” the “5-helix bundle binding activity” value (RSV 5-helix bundle) was “superior 5-helix bundle binding” and the “inhibition of RSV infection” value (rgRSV [3]) was “superior”.
